Experimental findings from patent US10774112B2, “Biomimetic peptide and biodegradable delivery platform for the treatment of angiogenesis- and lymphangiogenesis-dependent diseases” (THE JOHNS HOPKINS UNIVERSITY, priority 2013, dated 2020) are described below.

Assay [1] has as its system human umbilical vein endothelial cells (HUVEC). In words: Migration assay (RT-CIM), HUVEC. It is filed as cell-based. Conditions: FIG. 1. On the procedure:
The inhibitory potential of the peptides was measured using a real time migration assay system based on electrical impedance (RT-CIM, ACEA Biosciences, CA). CIM 16 well plates (Roche, 05665817001) are composed of a top and bottom chamber separated by a microporous (8 μm) polycarbonate membrane. The membrane was coated with fibronectin (20 μg/mL), and 45,000 cells/well in serum free media with or without peptides were added to the top compartment. Media with chemoattractant (i.e., fully supplemented EBM-2) was added to the bottom compartment of the chamber and the plate was incubated at 37° C. for 20 hours. The sensors integrated on the bottom side of the membrane monitor and continuously record changes in impedance as the cells move through the membrane. The RT-CIM technology allows for easy quantification of cell migration by monitoring the cell index derived from the measured impedances. Assays were performed in at least two independent replicates and each replicate was performed using two experimental duplicates. Breast cancer cells MDA-MB-231 are not suitable for the RT-CIM type experiments due to their thin elongated phenotype, thus the inhibition of migration was investigated using a wound healing type assay. This assay was performed using the Oris Pro Migration assay (Platypus Technologies, CMA 1.101). […]

The test system of assay [2] is human retinal endothelial cells (HREC). In words: Proliferation assay (WST-1), HREC. It is filed as cell-based. Conditions: FIG. 2. On the procedure:
(§1) A colorimetric based proliferation assay using WST-1 (Roche, 11644807001) proliferation reagent was carried out using HREC cells, HUVEC cells, and the breast cancer cells MDA-MB-231, MCF-7, and SUM149. 2000 cells/well were plated in 96-well plates and allowed to adhere overnight. On the following day, the media was exchanged with fully supplemented media containing peptides or equivalent DMSO vehicle for the controls. Three days later, the media containing the peptides was replaced with serum-free EBM-2 media containing WST-1 reagent and the plates were incubated for four hours as per the manufacturer's recommendations. Changes in color, due to the formazan dye resulted from the cleavage of the tetrazolium salt WST-1 by the mitochondrial succinate-tetrazolium reductase, were read on a Victor V fluorescence plate reader (Perkin Elmer, Mass.) by measuring the absorbance at 450 nm. Dose response curves of percent live cells (in comparison to untreated cells, but incubated in complete media with 0.2% DMSO) were created. Assays were performed in at least two independent replicates and each replicate was performed using three experimental triplicates.
In general terms: Tetrazolium assays rely on reduction of a dye to a coloured formazan, in cell work by metabolically active cells.

The subject of assay [3] is lymphatic endothelial cell (LEC). The assay is described as follows: LEC adhesion assay. The conditions noted are these: FIG. 4. It is filed as cell-based. On the procedure:
Similar to the migration assays, the inhibition activity of the peptide in cellular adhesion was assessed using the RT-CIM technology. In this case, 25,000 cells/well were plated in 16 wells E-plates (Roche, Basel Switzerland) in the presence or absence of the peptide. The adhesion was monitored over time (3 hours) by measuring changes in the electrical impedance, which is a direct measure of the cells adhering on the electrodes. Assays were performed in at least two independent replicates and each replicate was performed using two experimental duplicates.

Assay [4] deals with insulin growth factor 1 (IGF1) signaling. The assay is described as follows: IGF1 signaling in vitro in MEC. It is filed as cell-based. Conditions: FIG. 6.
Assay [5] relates to triple-negative breast cancer cell line SUM149. The assay is described as follows: Proliferation assay (WST-1), SUM149. Conditions: in vitro; FIG. 7. It is filed as cell-based. On the procedure:
as §1

For assay [6], the system named is estrogen receptor positive cell line MCF-7. In words: Proliferation assay (WST-1), MCF-7. The conditions noted are these: in vitro; FIG. 7. It is filed as cell-based. On the procedure:
as §1

The subject of assay [7] is c-Met. In words: Phosphorylation of c-Met in vivo. The conditions noted are these: FIG. 10.
Assay [8] relates to angiogenesis. The assay is described as follows: Angiogenesis in vivo (lectin staining, IHC).
The test system of assay [9] is lymphangiogenesis. In words: Lymphangiogenesis in vivo (LYVE-1 staining). The conditions noted are these: FIG. 11.
Assay [10] concerns VEGF-induced neovascularization. In words: rho/VEGF transgenic mice with VEGF-induced neovascularization. Conditions: compared to a control; FIGS. 13C-E. In kind it is in vivo. On the procedure: Transgenic Mice with VEGF-Induced Neovascularization.
At postnatal day 14, hemizygous rho/VEGF mice were given an intraocular injection of 1 μL of 5% DMSO/water, 1 μL of 5% DMSO/water containing 0.1 μg or 1 μg of SP2043 (SEQ ID No: 1) in one eye. Intraocular injections were done under a dissecting microscope with a Harvard Pump Microinjection System (Harvard Apparatus, Holliston, Mass.) and pulled glass micropipettes. At postnatal day 21, the total area of subretinal neovascularization (NV) per eye was quantified. Briefly, mice were anesthetized and perfused with 1 mL of PBS containing 25 mg/mL of fluorescein-labeled dextran (average molecular weight of 2×10^6, Sigma-Aldrich, St. Louis, Mo.). The eyes were removed and fixed for 1 hour in 10% phosphate-buffered formalin. […] The retinas were examined by fluorescence microscopy at 200× magnification, which provides a narrow depth of field so that when focusing on NV on the outer surface of the retina, the remainder of the retinal vessels are out of focus, allowing easy delineation of the NV. […] By using Image analysis software (Image-Pro Plus; Media Cybernetics, Silver Spring, Md.), an investigator masked with respect to treatment group allowed the software to recognize and calculated the total area of subretinal NV per eye as previously described.

Assay [11] deals with neovasculature in laser induced CNV. The assay is described as follows: CNV regression model. It is filed as in vivo, mice. Conditions: mouse eye; free peptide; FIG. 14. On the procedure: Bruch's membranes of both eyes of C57BL/6J mice were ruptured with a laser after anesthetizing the mice and dilating their pupils with 1% tropicamide. Seven days later, some mice were sacrificed to establish baseline neovascularization. At that time, 1 μg of SP2043 (SEQ ID NO: 1) was administered in one eye and vehicle in the fellow eye of other mice. Seven days later, all animals were perfused with fluorescein-labeled dextran, eyes removed, the retina dissected and flatmounted after making radial cuts, and fluorescence was measured. The images were digitized using a 3-color charge-coupled device video camera and a frame grabber and the area of hypervascularization was quantified by image-analysis software.

Assay [12] concerns neovascularization. The assay is described as follows: Neovascularization in a rabbit model. In kind it is in vivo. Conditions: day 34 following intravitreal injection into rabbit eyes; FIG. 26.

On to “LRRFSTAPFAFIDINDVINF (Artificial sequence based on human Collagen Type IV protein) [SP2043]”, for which the “migration of HUVEC” value in assay [1] was “inhibit”. For the same sequence, the “proliferation of HREC” value in [2] is “inhibit”. Besides, in [3], the “lymphatic endothelial cell adhesion” value is given as “inhibit”. Also, the “IGF1 signaling in MEC” value in assay [4] is recorded as “inhibit”. For the same sequence, in assay [5], the “proliferation of SUM149” value is “inhibit”. The “proliferation of MCF-7” value in assay [6] is on record as “inhibit”. The “phosphorylation of c-Met in vivo” value in assay [7] was “inhibit”. For the same sequence, in [8] (FIG. 10), the angiogenesis in vivo result was “inhibit”. Further, the “angiogenesis as seen by lectin staining for IHC” value in [8] (FIG. 11) is given as “inhibited”. Moreover, the “lymphangiogenesis as seen by LYVE-1 staining” value in assay [9] is recorded as “inhibited”. In addition, the “neovascularization in rho-VEGF mouse model” value in assay [10] is “inhibited”. Besides, the “regression of the neovasculature in laser induced CNV model” value in [11] was “caused regression”. In addition, the “neovascularization in a rabbit model” value in assay [12] was “Inhibition”.
